System: MC-38 colon cancer
Assay: Anti-tumor experiment in MC-38 mouse model (subcutaneous xenograft tumor of MC-38 colon cancer in mice)
Format: in vivo
Conditions: for TV (mm^3) on day 0 Mean ± SD: day 0 (baseline at grouping); for TV (mm^3) on day 0 Mean ± SD / TV (mm^3) on day 12 Mean ± SD / TV (mm^3) on day 18 Mean ± SD: female C57BL/6 mice; for TV (mm^3) on day 0 Mean ± SD / TV (mm^3) on day 12 Mean ± SD / TV (mm^3) on day 18 Mean ± SD / TGI (%): i.g., anlotinib 1 mg/kg qd, TLR7 agonist 20 mg/kg tiw, 2 w; for TGI (%): tumor growth inhibition from tumor weight vs control group at end of experiment
Protocol: In Example 1, the TLR7 agonist is selected from
[drawing 58] and anlotinib is selected fromanlotinib dihydrochloride.
The MC-38 is a colon cancer cell of mouse from Jiangsu Cyto Biotechnology Co., Ltd.
Subcutaneously grafted tumor cells of MC-38 colon cancer (concentration: 2×10^6/mL×0.2 mL/mouse) were inoculated into female C57BL/6 mice at the right side armpit (the site to be inoculated was shaved before inoculating) in a sterile environment, and passaged using a block insertion method. The C57BL/6 mice were 16-18 g in weight, and the breeding environment was SPF level. The diameter of the C57BL/6 xenograft tumor was measured using a vernier caliper, and the mice were randomized into 4 groups when the tumors grew to 100-300 mm^3 (12 mice for control group and 6 mice each for other groups): • i. Control group (blank control); • ii. Monotherapy group: anlotinib, with normal saline as vehicle; • iii. Monotherapy group: TLR7 agonist, with ethanol+tween 80+normal saline (v:v:v=5:5:90) as vehicle; • iv.
The administration method of the combination therapy group is consistent with that of the monotherapy group.
Weights and diameter of the tumor were measured every three days, and the behavior of mice was observed daily. After the experiment was completed, the tumors were removed, weighed and photographed.
The tumor volume and the tumor growth inhibition were calculated using the following formulas: Tumor volume (TV)=(L×W^2)/2.
The TGI (%), as a value of efficacy, was substituted into the Jin zhengjun's formula q=Eab/(Ea+Eb−Ea×Eb), where Ea and Eb represent the efficacy of medicaments used alone, and Eab represents the efficacy of combined use.

Structure (SMILES)	TV (mm^3) on day 0 Mean ± SD [mm^3]	TV (mm^3) on day 12 Mean ± SD [mm^3]	TV (mm^3) on day 18 Mean ± SD [mm^3]	TGI (%)	effect on growth of MC-38 tumor (in words) (summary of Table 2)
COc1cc2c(Oc3ccc4[nH]c(C)cc4c3F)ccnc2cc1OCC1(N)CC1 [anlotinib, 1-[[[4-(4-fluoro-2-methyl-1H-indol-5-yl)oxy-6-methoxyquinolin-7-yl]oxy]methyl]cyclopropylamine, reference compound]	143.28 ± 45.46	427.30 ± 135.63	900.32 ± 346.06	33	
CCCCOc1nc(N)c2[nH]cc(Cc3ccc(CN4CCCC4)cc3)c2n1 [TLR7 agonist]	143.93 ± 47.74	427.88 ± 161.31	747.63 ± 347.13	39	can inhibit the growth of MC-38 tumor
